Laboratory results published in US11458123B2 (Arvinas, Inc., priority 2016, dated 2022).

What follows are compounds tested on tau protein (assay: Tau protein in vitro degradation assay (Western blot, Tau-13 antibody)). Details: SK-N-SH cells; 72 hours of incubation; tested at 300 nM, 100 nM, 33 nM and 11 nM; Western blot, Tau-13 antibody.
Assay type: cell-based, human
Method in brief: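 Tau degradation read by Tau-13 Western blot (detects all human tau forms) of SDS-PAGE-resolved lysates from SK-N-SH cells. Cells were plated at least 18 h before 72 h exposure to PROTACs at either 1000/300/100 nM or 300/100/33/11 nM.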
With `Cn1c2ccncc2c2ccc(-c3ccc(O[C@H]4C[C@H](OCCOCCOCCOC5CN(c6ccc7c(c6)C(=O)N(C6CCC(=O)NC6=O)C7=O)C5)C4)nc3)cc21` (stereo partly shown) [Compound 161, 2-(2,6-dioxopiperidin-3-yl)-5-(3-(2-(2-(2-((1r,3r)-3-((5-(5-methyl-5H-pyrido[4,3-b]indol-7-yl)pyridin-2-yl)oxy)cyclobutoxy)ethoxy)ethoxy)ethoxy)azetidin-1-yl)isoindoline-1,3-dione] the “Degradation activity* (highest amount of degradation observed at any dosage; tau protein remaining)” value was “C (>80% tau protein remaining after 72 hours of incubation with the test compound)”.
In the case of `Cn1c2ccncc2c2ccc(-c3ccc(O[C@H]4C[C@H](OCCCCOCCCCOC5CN(c6ccc7c(c6)C(=O)N(C6CCC(=O)NC6=O)C7=O)C5)C4)nc3)cc21` (stereo partly shown) [Compound 162, 2-(2,6-dioxopiperidin-3-yl)-5-(3-(4-(4-((1r,3r)-3-((5-(5-methyl-5H-pyrido[4,3-b]indol-7-yl)pyridin-2-yl)oxy)cyclobutoxy)butoxy)butoxy)azetidin-1-yl)isoindoline-1,3-dione], the “Degradation activity* (highest amount of degradation observed at any dosage; tau protein remaining)” value is reported as “A (≤50% tau protein remaining after 72 hours of incubation with the test compound)”.
With `Cn1c2ccncc2c2ccc(-c3ccc(O[C@H]4C[C@H](OCCOCCOC5CN(c6ccc7c(c6)C(=O)N(C6CCC(=O)NC6=O)C7=O)C5)C4)nc3)cc21` (stereo partly shown) [Compound 163, 2-(2,6-dioxopiperidin-3-yl)-5-(3-(2-(2-((1r,3r)-3-((5-(5-methyl-5H-pyrido[4,3-b]indol-7-yl)pyridin-2-yl)oxy)cyclobutoxy)ethoxy)ethoxy)azetidin-1-yl)isoindoline-1,3-dione] the “Degradation activity* (highest amount of degradation observed at any dosage; tau protein remaining)” value was “C (>80% tau protein remaining after 72 hours of incubation with the test compound)”.
`O=C1CCC(N2C(=O)c3ccc(OCCCCCC(=O)N4CCC(O[C@H]5C[C@H](Oc6ccc(-c7ccc8c(c7)[nH]c7ccncc78)cn6)C5)CC4)cc3C2=O)C(=O)N1` (stereo partly shown) [Compound 164, 5-(6-(4-((1r,3r)-3-(5-(5H-pyrido[4,3-b]indol-7-yl)pyridin-2-yloxy)cyclobutoxy)piperidin-1-yl)-6-oxohexyloxy)-2-(2,6-dioxopiperidin-3-yl)isoindoline-1,3-dione] was tested, and the “Degradation activity* (highest amount of degradation observed at any dosage; tau protein remaining)” value was “C (>80% tau protein remaining after 72 hours of incubation with the test compound)”.
With `O=C1CCC(N2C(=O)c3ccc(OCCCCCOC4CCN(C(=O)[C@H]5C[C@H](Oc6ccc(-c7ccc8c(c7)[nH]c7ccncc78)cn6)C5)CC4)cc3C2=O)C(=O)N1` (stereo partly shown) [Compound 165, 5-((5-((1-((1r,3r)-3-((5-(5H-pyrido[4,3-b]indol-7-yl)pyridin-2-yl)oxy)cyclobutane-1-carbonyl)piperidin-4-yl)oxy)pentyl)oxy)-2-(2,6-dioxopiperidin-3-yl)isoindoline-1,3-dione] the “Degradation activity* (highest amount of degradation observed at any dosage; tau protein remaining)” value was “C (>80% tau protein remaining after 72 hours of incubation with the test compound)”.
In the case of `O=C1CCC(N2C(=O)c3ccc(OCCCCCOC4CCN(C(=O)[C@H]5C[C@@H](Oc6ccc(-c7ccc8c(c7)[nH]c7ccncc78)cn6)C5)CC4)cc3C2=O)C(=O)N1` (stereo partly shown) [Compound 166, 5-((5-((1-((1r,3r)-3-((5-(5H-pyrido[4,3-b]indol-7-yl)pyridin-2-yl)oxy)cyclobutane-1-carbonyl)piperidin-4-yl)oxy)pentyl)oxy)-2-(2,6-dioxopiperidin-3-yl)isoindoline-1,3-dione], the “Degradation activity* (highest amount of degradation observed at any dosage; tau protein remaining)” value is reported as “C (>80% tau protein remaining after 72 hours of incubation with the test compound)”.
With `Cn1c2ccncc2c2ccc(-c3ccc(OCCCOc4ccc(C#CCOC5CN(c6ccc7c(c6)C(=O)N(C6CCC(=O)NC6=O)C7=O)C5)nc4)nc3)cc21` (stereo not shown) [Compound 167, 2-(2,6-dioxopiperidin-3-yl)-5-(3-((3-(5-(3-((5-(5-methyl-5H-pyrido[4,3-b]indol-7-yl)pyridin-2-yl)oxy)propoxy)pyridin-2-yl)prop-2-yn-1-yl)oxy)azetidin-1-yl)isoindoline-1,3-dione] the “Degradation activity* (highest amount of degradation observed at any dosage; tau protein remaining)” value was “C (>80% tau protein remaining after 72 hours of incubation with the test compound)”.
